# Assay results as given in patent US20220365070A1, “COMPOSITIONS, SYSTEMS, AND METHODS FOR IDENTIFYING A COMPOUND THAT MODULATES ONE OR MORE CHARACTERISTICS ASSOCIATED WITH A RBM20 CONDENSATE AND/OR A RBM20 POLYPEPTIDE” (Dewpoint Therapeutics, Inc., priority 2019, published 2022).
# Test system: cytoplasmic mutant R636S RBM20 condensates in H9C2 cells
# Experiment: Screening assay for compounds that modulate cytoplasmic mutant R636S RBM20 condensates (fluorescence imaging)
# Type: cell-based, rat
# Conditions: H9C2 cells transiently transfected with R636S RBM20-Dendra2; 20 μM test compound; incubated 24 hours; versus DMSO
# Experimental: H9C2 cells were engineered using transient transfection to express a mutant R636S RBM20 polypeptide linked to a Dendra2 label. Following transfection, cells were incubated to allow for RBM20 polypeptide expression for about 16 hours. H9C2 cells were seeded into 384-well plates, and admixed with a control (DMSO) or 20 μM test compound, and then incubated for 24 hours prior to fixation, staining (e.g., with DAPI), and capturing of fluorescent images. H9C2 cells not transfected with mutant R636S RBM20 polypeptide served as controls. Three replicates were run for each compound. Fluorescent images of cells, and/or portions of cells, were captured using a DeltaVision wide-field deconvoluted system.
# Non-transfected H9C2 cells served as control. […] Their down-regulation levels are indicated as Z score under each panel.
row,Compound,effect on cytoplasmic mutant R636S RBM20 condensates
1,O=C1Nc2cc(Br)ccc2/C1=C1/Nc2ccccc2/C1=N\O [BIO],able to reduce cytoplasmic mutant R636S RBM20 condensates
2,CCN(CC)CCCC(C)Nc1c2ccc(Cl)cc2nc2ccc(OC)cc12.Cl.Cl (stereo not drawn) [Quinacrine 2HCl],increased cytoplasmic mutant R636S RBM20 condensates
3,CC(C)[C@]12O[C@H]1[C@@H]1O[C@]13[C@]1(O[C@H]1C[C@H]1C4=C(CC[C@@]13C)C(=O)OC4)[C@@H]2O [Triptolide],able to reduce cytoplasmic mutant R636S RBM20 condensates
4,Cn1ncc(Cl)c1-c1cc(C(=O)N[C@H](CN)Cc2ccc(F)c(F)c2)oc1Cl [Uprosertib],able to reduce cytoplasmic mutant R636S RBM20 condensates
5,CN1CCN(Cc2ccc(NC(=O)Cc3ccc(Oc4cc(NC(=O)C5CC5)ncn4)cc3)cc2C(F)(F)F)CC1 [WS6],able to reduce cytoplasmic mutant R636S RBM20 condensates
6,COc1ccc(C[C@H]2NC[C@H](O)[C@H]2OC(C)=O)cc1 [anisomycin],able to reduce cytoplasmic mutant R636S RBM20 condensates
